For one compound, IC50 results are on record in ChEMBL document CHEMBL5729071, “Cyano thienotriazolodiazepines and uses thereof” (2022).

Molecules are shown by their SMILES.

The target of the test is Bromodomain-containing protein 4 (Homo sapiens, UniProt O60885). Kind of test: Assays were performed as described previously with minor modifications from the manufacturer's protocol (PerkinElmer, USA). All reagents were diluted in 50 mM HEPES, 100 mM NaCl, 0.1% BSA, pH 7.4 supplemented with 0.05% CHAPS and allowed to equilibrate to room temperature prior to addition to plates. […] Plates were sealed and incubated for a further 30 minutes, before the addition of 4 μl of streptavidin-coated donor beads (25 μg/ml) and 4 μl nickel chelate acceptor beads (25 μg/ml) under low light conditions. Plates were foil-sealed to protect from light, incubated at room temperature for 60 minutes and read on a PHERAstar FS plate reader (BMG Labtech, Germany) using an AlphaScreen 680 excitation/570 emission filter set. IC50 values were calculated in Prism 5 (GraphPad Software, USA) after normalization against corresponding DMSO controls and are given as the final concentration of compound in the 20 μl reaction volume.

As for `Cc1sc2c(c1C)C(c1ccc(C#N)cc1)=N[C@@H](CC(=O)OC(C)(C)C)c1nnc(C)n1-2`, the IC50 is 97 nM.

One may read the IC50 as the concentration that inhibits the measured activity by half.
